Reference: patent publication US8637511B2, “Aminopyrimidines useful as kinase inhibitors” (Vertex Pharmaceuticals Incorporated, priority 2005, dated 2014)
pKi: −log10 of the molar value. “And” between values parts separate entries of the source, which are not always exact repeats. Equal values may be shown once. Read-outs that look alike come from different tables or passages of the source.

Tests used:
Aurora-1 (Aurora B) = Aurora-1 (Aurora B) (Homo sapiens, UniProt Q96GD4); experiment: Aurora-1 (Aurora B) inhibition assay (radiometric); format: biochemical; details: read-out: Aurora B kinase Ki value
Method in brief: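 Ki values come from non-linear regression of background-corrected initial-rate data. The enzyme was preincubated 10 min at 25° C with compound, then reacted 3 h with 800 μM (final) [γ-^33P]-ATP in HEPES pH 7.5/MgCl2/BSA/glycerol buffer. The reaction was stopped with phosphoric acid and substrate-bound ^33P counted on phosphocellulose.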

JAK3 = target: T1, JAK3 (Homo sapiens, UniProt P52333); experiment: biochemical
T1 sequence (P52333 1-1124): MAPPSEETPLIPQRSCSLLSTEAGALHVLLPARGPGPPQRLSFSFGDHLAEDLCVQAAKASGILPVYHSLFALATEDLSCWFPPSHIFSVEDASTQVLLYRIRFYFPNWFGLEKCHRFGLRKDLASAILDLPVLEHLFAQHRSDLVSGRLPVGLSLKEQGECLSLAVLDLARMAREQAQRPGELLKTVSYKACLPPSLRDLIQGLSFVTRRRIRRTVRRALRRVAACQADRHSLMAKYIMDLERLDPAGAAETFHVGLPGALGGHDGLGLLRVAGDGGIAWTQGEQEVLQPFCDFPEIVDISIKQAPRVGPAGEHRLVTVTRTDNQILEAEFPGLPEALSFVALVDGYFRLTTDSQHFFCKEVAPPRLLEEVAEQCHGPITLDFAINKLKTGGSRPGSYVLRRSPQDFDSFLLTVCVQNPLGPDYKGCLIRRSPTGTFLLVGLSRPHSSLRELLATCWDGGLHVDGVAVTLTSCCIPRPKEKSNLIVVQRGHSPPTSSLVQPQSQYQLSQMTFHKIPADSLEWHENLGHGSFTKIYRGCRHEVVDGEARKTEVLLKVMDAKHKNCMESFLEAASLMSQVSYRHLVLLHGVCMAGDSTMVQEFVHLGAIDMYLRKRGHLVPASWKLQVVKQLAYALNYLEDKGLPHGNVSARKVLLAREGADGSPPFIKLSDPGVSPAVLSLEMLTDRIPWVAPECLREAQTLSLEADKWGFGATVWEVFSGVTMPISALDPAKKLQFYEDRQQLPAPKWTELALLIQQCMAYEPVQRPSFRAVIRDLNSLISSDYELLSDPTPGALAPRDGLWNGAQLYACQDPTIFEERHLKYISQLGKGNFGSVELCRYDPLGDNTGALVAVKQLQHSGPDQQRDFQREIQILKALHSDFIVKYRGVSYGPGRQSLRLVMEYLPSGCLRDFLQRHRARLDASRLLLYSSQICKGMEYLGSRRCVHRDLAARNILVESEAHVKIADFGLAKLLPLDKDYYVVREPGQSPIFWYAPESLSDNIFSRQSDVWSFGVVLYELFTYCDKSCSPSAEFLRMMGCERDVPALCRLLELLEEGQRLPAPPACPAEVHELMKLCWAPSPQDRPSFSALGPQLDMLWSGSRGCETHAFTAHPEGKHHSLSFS

Chain of Aurora-1 (Aurora B) (Q96GD4 whole entry): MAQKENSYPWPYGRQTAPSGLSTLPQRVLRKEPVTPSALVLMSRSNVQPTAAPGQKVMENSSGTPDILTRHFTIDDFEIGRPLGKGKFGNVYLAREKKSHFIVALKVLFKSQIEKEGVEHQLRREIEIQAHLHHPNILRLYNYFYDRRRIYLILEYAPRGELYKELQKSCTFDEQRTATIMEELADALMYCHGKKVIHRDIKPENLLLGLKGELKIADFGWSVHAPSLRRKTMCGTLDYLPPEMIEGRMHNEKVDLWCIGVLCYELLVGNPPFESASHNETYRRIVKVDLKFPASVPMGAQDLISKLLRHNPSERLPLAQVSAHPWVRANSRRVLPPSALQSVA

SMILES | pKi (Aurora-1 (Aurora B)) | pKi (JAK3; read-out: JAK3 Ki value) | pKi (JAK3)
Cc1cc(Nc2cc(N3CC(C)(F)C3)nc(Sc3ccc(NC(=O)CC(F)(F)F)cc3)n2)n[nH]1 [Compound 168, N-(4-(4-(5-methyl-1H-pyrazol-3-ylamino)-6-(3-fluoro-3-methylazetidin-1-yl)pyrimidin-2-ylthio)phenyl)-3,3,3-trifluoropropanamide] | ≥ 8.00 | 6.30 to 8.00 | 
Cc1cc(Nc2cc(N3CC(OC(C)C)C3)nc(Sc3ccc(NC(=O)c4ccccc4Cl)cc3)n2)n[nH]1 [Compound 38] | ≥ 8.00 |  | 6.30 to 8.00
Cc1cc(Nc2cc(N3CC(OC(=O)CN(C)C)(C4CC4)C3)nc(Sc3ccc(NC(=O)C4CC4)cc3)n2)n[nH]1 [Compound 119] | ≥ 8.00 |  | 6.30 to 8.00
Cc1cc(Nc2cc(N3CC(N4CCCC4)C3)nc(Sc3ccc(NC(=O)CC(F)(F)F)cc3)n2)[nH]n1 [Compound 204] | ≥ 8.00 | 6.30 to 8.00 | 
Cc1cc(Nc2cc(N3CC(O)(C4CC4)C3)nc(Sc3ccc4nc(C(F)(F)F)n(C)c4c3)n2)[nH]n1 [Compound 155] | ≥ 8.00 |  | 6.30 to 8.00
Cc1cc(Nc2cc(N3CCC3)nc(Sc3ccc(NC(=O)Cc4ccccc4Cl)cc3)n2)[nH]n1 [Compound 57] | ≥ 8.00 |  | 6.30 to 8.00
CCOC1CN(c2cc(Nc3cc(C)[nH]n3)nc(Sc3ccc(NC(=O)c4ccccc4Cl)cc3)n2)C1 [Compound 37] | ≥ 8.00 | ≥ 8.00 | 
CC(C)(C)c1cc(Nc2cc(N3CCC3)nc(Sc3ccc(NC(=O)c4ccccc4Cl)cc3)n2)n[nH]1 [Compound 69] | 5.70 to 7.30 | 5.70 to 6.30 | 
CC(C)=C1CN(c2cc(Nc3cc(C)n[nH]3)nc(Sc3ccc(NC(=O)CC(F)(F)F)cc3)n2)C1 [Compound 184] | 7.30 to 8.00 and > 7.60 |  | 6.30 to 8.00
CCC(=O)Nc1ccc(Sc2nc(Nc3cc(C)n[nH]3)cc(N3CC(OC(C)(C)C)C3)n2)cc1 [Compound 67] | 5.70 to 7.30 | 6.30 to 8.00 | 
Cc1cc(Nc2cc(N3CC(O)(C4CC4)C3)nc(Sc3ccc4nc(C(F)(F)F)ccc4c3)n2)[nH]n1 [Compound 186] | ≥ 8.00 | 6.30 to 8.00 | 
Cc1cc(Nc2cc(N3CC(F)(C4CC4)C3)nc(Oc3ccc(NC(=O)CC(F)(F)F)cc3)n2)[nH]n1 [Compound 144] | 7.30 to 8.00 and > 7.60 |  | 6.30 to 8.00
Cc1cc(Nc2cc(N3CC(C)(C(C)(C)F)C3)nc(Sc3ccc(NC(=O)CC(F)(F)F)cc3)n2)[nH]n1 [Compound 183] | ≥ 8.00 | ≥ 8.00 | 
Cc1cc(Nc2cc(N3CC(C)(C#N)C3)nc(Sc3ccc(NC(=O)CC(F)(F)F)cc3)n2)[nH]n1 [Compound 169] | ≥ 8.00 | 6.30 to 8.00 | 
CCC(=O)Nc1ccc(Sc2nc(Nc3cc(C)n[nH]3)cc(N3CC(C)(N4CCOCC4)C3)n2)cc1 [Compound 88] | ≥ 8.00 | ≥ 8.00 | 
Cc1cc(Nc2cc(N3CCC3)nc(Sc3ccc(NC(=O)c4cnccc4C(F)(F)F)cc3)n2)[nH]n1 [Compound 59] | ≥ 8.00 |  | 
COC1(C)CN(c2cc(Nc3cc(C)n[nH]3)nc(Sc3ccc(NC(=O)c4ccccc4Cl)cc3)n2)C1 [Compound 51] | ≥ 8.00 |  | 6.30 to 8.00
Cc1cc(Nc2cc(N3CC(F)(C4CC4)C3)nc(Sc3ccc(C(=O)NCC(F)(F)F)cc3)n2)[nH]n1 [Compound 205] | 7.30 to 8.00 and > 7.60 | 6.30 to 8.00 | 

SMILES | pKi (Aurora-1 (Aurora B)) | pKi (JAK3; read-out: JAK3 Ki value) | pKi (JAK3)
Cc1cc(Nc2cc(N3CC(C)(O)C3)nc(Sc3ccc(NC(=O)c4ccccc4Cl)cc3)n2)[nH]n1 [Compound 50] | ≥ 8.00 | ≥ 8.00 | 
CCC(=O)Nc1ccc(Sc2nc(Nc3cc(C)n[nH]3)cc(N3CC4(C3)OCC4(C)C)n2)cc1 [Compound 92] | 7.30 to 8.00 |  | ≥ 8.00
Cc1cnc(Nc2cc(N3CC(F)(C4CC4)C3)nc(Oc3ccc(NC(=O)CC(F)(F)F)cc3)n2)s1 [Compound 181] | 7.30 to 8.00 | ≥ 8.00 | 
Cc1cc(Nc2nc(Sc3ccc(NC(=O)CC(F)(F)F)cc3)nc(N3CC(F)(C4CC4)C3)c2F)[nH]n1 [Compound 178] | 7.30 to 8.00 |  | 5.70 to 6.30
Cc1cc(Nc2cc(N3CC(N4CC[C@H](F)C4)C3)nc(Sc3ccc(NC(=O)CC(F)(F)F)cc3)n2)[nH]n1 [Compound 185] | ≥ 8.00 | ≥ 8.00 | 
Cc1cc(Nc2cc(N3CC(F)(C4CC4)C3)nc(Sc3ccc(NS(C)(=O)=O)cc3)n2)[nH]n1 [Compound 151] | 5.70 to 7.30 |  | ≥ 8.00
Cc1cc(Nc2cc(N3CC(O)(C4CC4)C3)nc(Sc3ccc(NC(=O)C4CC4)c(F)c3)n2)[nH]n1 [Compound 109] | 7.30 to 8.00 | 6.30 to 8.00 | 
Cc1cc(Nc2cc(N3CC(N4CCOCC4)C3)nc(Sc3ccc4c(c3)CN(CC(F)(F)F)C4=O)n2)[nH]n1 [Compound 173] | 7.30 to 8.00 and > 7.60 |  | ≥ 8.00
Cc1cc(Nc2cc(N3CC(F)(C4CC4)C3)nc(Sc3ccc(NC(=O)CN(C)C)cc3)n2)[nH]n1 [Compound 152] | ≥ 8.00 |  | 5.70 to 6.30
COCc1cc(Nc2cc(N3CCC3)nc(Sc3ccc(NC(=O)c4ccccc4Cl)cc3)n2)n[nH]1 [Compound 82] | 5.70 to 7.30 | 5.70 to 6.30 | 
Cc1cc(Nc2cc(N3CC(F)(C4CC4)C3)nc(Sc3cnc4ccccc4c3)n2)[nH]n1 [Compound 206] | 7.30 to 8.00 |  | ≥ 8.00
Cc1cc(Nc2cc(N3CC(O)(C4CC4)C3)nc(Sc3cc(F)c4nc(C)ccc4c3)n2)[nH]n1 [Compound 172] | ≥ 8.00 |  | ≥ 8.00
CCC(=O)Nc1ccc(Sc2nc(Nc3cc(C)n[nH]3)cc(N3CC(C)(N4CCCC4)C3)n2)cc1 [Compound 89] | ≥ 8.00 |  | 6.30 to 8.00
Cc1cc(Nc2cc(N3CC(N4CCOCC4)C3)nc(Sc3ccc4nc(CC(F)(F)F)n(C)c4c3)n2)[nH]n1 [Compound 177] | ≥ 8.00 |  | 6.30 to 8.00
Cc1cc(Nc2cc(N3CCC3)nc(Sc3ccc(NC(=O)c4ccc(-c5ccccc5)cc4Cl)cc3)n2)[nH]n1 [Compound 83] | ≥ 8.00 |  | 6.30 to 8.00
CCC(=O)Nc1ccc(Sc2nc(Nc3cc(C)n[nH]3)cc(N3CC(OC)(C(C)(C)C)C3)n2)cc1 [Compound 90] | ≥ 8.00 |  | 6.30 to 8.00
CCC(=O)Nc1ccc(Sc2nc(Nc3cc(C)n[nH]3)cc(N3CC(N4CCOCC4)C3)n2)cc1 [Compound 68] | 5.70 to 7.30 |  | 6.30 to 8.00
Cc1cc(Nc2cc(N3CC(F)(C4CC4)C3)nc(Sc3ccc(NC(=O)C4(C)CC4)cc3)n2)[nH]n1 [Compound 203] | 5.70 to 7.30 |  | 5.70 to 6.30
